Data published in US10351568B2, “Compositions and methods for enhancing proteasome activity” (President and Fellows of Harvard College, priority 2010, dated 2019).

Key:
[1] = system: eight deubiquitinating enzymes of human origin; assay: Deubiquitinase selectivity panel (Ub-AMC hydrolysis); assay type: biochemical; conditions: 17 μM
[2] = Compound concentration in serum-containing media / release, 293 cells; assay type: in vitro ADME; conditions: 1 hr to 48 hr
Description: The experiment was performed as in FIG. 42A.

MEFs and 293 cells = assay: Cell proliferation by real-time microscopy (confluency); assay type: cell-based
HEK293 cells = assay: MTT cell survival upon menadione oxidative stress, HEK293; assay type: cell-based, human; conditions: 6 hr, menadione 4 hr
ataxin-3 = assay: Ataxin-3 depletion in MEF cells (immunoblot); assay type: cell-based; conditions: 50 or 100 μM IU1
Description: (§1) Other proteins that have been implicated in proteotoxic mechanisms were also tested.

[3] = Cellular entry, release and stability of compound (LC/MS, UV absorption)
Description: Cell lysates were collected and ethyl acetate extraction was used to prepare mass spectrometer samples.

oxidized proteins = assay: Oxidized protein accumulation after menadione (DNPH immunoblot); assay type: cell-based; conditions: MEFs, 75 μM IU1 4 hours, then 63 μM menadione 45 minutes
Excerpt: Oxidized proteins form another class of proteasome substrates that play an important role in human health. Harmful oxidized proteins accumulate upon ageing and are implicated in a variety of age-related diseases and disorders (Stadtman (2006) Protein oxidation and aging. Free Radic. Res. 40, 1250-1258; Ahmed et al. (2007) Protein oxidative modifications and replicative senescence of WI-38 human embryonic fibroblasts. Ann. NY Acad. Sci., 1119, 88-96; Moskovitz et al. (2001). Methionine sulfoxide reductase (MsrA) is a regulator of antioxidant defense and lifespan in mammals. Proc. Nat. Acad. Sci. USA, […], 12920-12925.). Protein oxidation was induced by treating cells with menadione, and oxidized species were visualized using an antibody specific for protein carbonyls. […] The cells were lysed and lysates were incubated with DNPH and immunoblotted with anti-DNPH antibody to assay for oxidized proteins.

Isopeptidase T (IsoT) = Isopeptidase T (IsoT) (Homo sapiens, UniProt P45974); assay: Isopeptidase T deubiquitinase activity; assay type: biochemical; conditions: 8 μM, 17 μM
MEF cells [4] = assay: MTT cell survival upon menadione oxidative stress, MEF; assay type: cell-based
Excerpt: The effect on the IC50 for menadione is almost 4-fold.

[5] = molecular target: T1, Usp14/26S proteasome complexes (Homo sapiens, UniProt P54578); assay: Ub-AMC hydrolysis by VS-proteasomes reconstituted with recombinant Usp14; assay type: biochemical
T1 construct: GST (N, cleaved yes); made in house; host or cells: E. coli Rosetta 2 (DE3) for Usp14
Description: Compounds were screened for Usp14/26S inhibition in 384-well low-volume plates in duplicate. Data processing was done by a robust Z-score method and each compound was plotted using Spotfire software. Compounds over the cut-off of Z>5 were mostly autofluorescent and were therefore not counted. To exclude quenching compounds that only affect AMC fluorescence, 312 primary hits were tested for quenching of AMC amine, and pure quenchers were scored as false-positives and excluded from further analysis (FIG. 8B).
The data plot of each experiment was fit into a four parameter logistic model (the Hill-slope model) based on guidelines from the NIH Chemical Genomics Center.

TDP-43 = TDP-43 depletion in MEF cells (immunoblot); assay type: cell-based; conditions: 75 μM IU1
Description: as §1

[6] = Hydrogen peroxide toxicity; assay type: cell-based; conditions: data not shown
[7] = molecular target: T2, Usp14/proteasome complexes (Homo sapiens, UniProt P54578); assay: Usp14 binding to purified proteasome (immunoblot); conditions: various concentrations of IU1
T2 construct: GST (N, cleaved yes); made in house; host or cells: E. coli Rosetta 2 (DE3) for Usp14
Excerpt: The asterisk (*) denotes a nonspecific signal generated by the anti-Usp14 antibody.

[8] = molecular target: T2, Usp14/proteasome complexes; assay: In vitro ubiquitin chain trimming assay with polyubiquitinated cyclin B; assay type: biochemical
Description: Immunoblot was performed using an antibody specific for human cyclin B (CCNB).
(§2) The effect of Usp14 on the degradation of ubiquitinated substrates was examined using an in vitro degradation assay using the ubiquitin-dependent proteasome substrate polyubiquitinated cyclin B (Ubn-ClnB).
To separate chain trimming from substrate degradation, these assays were done in the presence of proteasome inhibitors. The effectiveness of the proteasome inhibitors is evidenced by the accumulation of unmodified cyclin B in the assay (FIG. 15).

[9] = molecular target: T3, proteasome-bound form of Uch37 (Homo sapiens, UniProt Q9Y5K5); assay: Ub-AMC hydrolysis by 26S proteasomes not treated with Ub-VS (lacking Usp14); assay type: biochemical
T3 construct: endogenous in cells

MEF cells [10] = assay: TUNEL apoptosis assay; assay type: cell-based; conditions: 100 μM IU1, 6 hr
Description: (§3) Effects on cell viability became apparent at concentrations over 100 μM, well above the doses required to enhance the degradation of Tau, TDP-43, ataxin-3, and oxidized proteins (FIGS. 21-23).

murine Psmb5 promoter = assay: Psmb5 promoter luciferase reporter in MEFs; assay type: cell-based; conditions: wild-type and Usp14−/− MEFs, 25 or 50 μM, 8 hr
Description: For normalization of luciferase activity, a control experiment using the promoter-less pGL3 plasmid was performed. Values are mean±SD from three independent experiments. RLU, relative light units.

[11] = molecular target: T4, Usp14-containing proteasomes (Homo sapiens, UniProt P54578); assay: In vitro Ubn-ClnB degradation assay; assay type: biochemical
T4 construct: GST (N, cleaved yes); made in house; host or cells: E. coli Rosetta 2 (DE3) for Usp14
Excerpt: as §2
It was next tested whether IU1 could serve as an enhancer of substrate degradation by the proteasome.

GFP-ODC = assay: Degradation of ubiquitin-independent proteasome substrate in cells; assay type: cell-based
Description: Proteasome inhibitors (30 μM MG132, 10 μM PS-341) were treated 4 hr before lysis.
as §1

[12] = molecular target: T5, Usp14 that had not been loaded onto a proteasome (Homo sapiens, UniProt P54578); assay: Activity of Usp14 not complexed to the proteasome; assay type: biochemical
T5 construct: GST (N, cleaved yes); made in house; host or cells: E. coli Rosetta 2 (DE3)

proteasome = assay: Proteasome integrity by native PAGE of total cell extracts; assay type: cell-based; conditions: 100 μM IU1, 6-hr
Excerpt: RP2-CP and RP-CP indicate distinct forms of the 26S proteasome.

[13] = system: MEF, HEK293 and HeLa cells; assay: MTT cell viability assay; assay type: cell-based; conditions: MTT after 6, 12, 24 or 48 hours
Description: as §3

UbB, α6, α7 = assay: Quantitative RT-PCR of ubiquitin and proteasome subunit genes in MEFs; assay type: cell-based; conditions: +/+ and Usp14−/− MEFs, graded doses, 6 hr
Usp14 = Usp14 (Homo sapiens, UniProt P54578); assay: Mass spectrometry analysis of IU1 inhibited Usp14; assay type: binding
[14] = system: glial fibrillary acidic protein (GFAP); assay: GFAP depletion in MEF cells (immunoblot); assay type: cell-based; conditions: MEF cells, 25, 50 or 100 μM IU1
Description: as §1

Tau = Tau degradation in MEF cells (immunoblot, RT-PCR); assay type: cell-based
Excerpt: No effect was seen on Tau mRNA levels (FIG. 21B).

mCherry-NBR1 = mCherry-NBR1 immunofluorescence in wild-type MEFs; assay type: cell-based; conditions: 200 μM, 6 hr

Chain of Usp14 (P54578 whole entry): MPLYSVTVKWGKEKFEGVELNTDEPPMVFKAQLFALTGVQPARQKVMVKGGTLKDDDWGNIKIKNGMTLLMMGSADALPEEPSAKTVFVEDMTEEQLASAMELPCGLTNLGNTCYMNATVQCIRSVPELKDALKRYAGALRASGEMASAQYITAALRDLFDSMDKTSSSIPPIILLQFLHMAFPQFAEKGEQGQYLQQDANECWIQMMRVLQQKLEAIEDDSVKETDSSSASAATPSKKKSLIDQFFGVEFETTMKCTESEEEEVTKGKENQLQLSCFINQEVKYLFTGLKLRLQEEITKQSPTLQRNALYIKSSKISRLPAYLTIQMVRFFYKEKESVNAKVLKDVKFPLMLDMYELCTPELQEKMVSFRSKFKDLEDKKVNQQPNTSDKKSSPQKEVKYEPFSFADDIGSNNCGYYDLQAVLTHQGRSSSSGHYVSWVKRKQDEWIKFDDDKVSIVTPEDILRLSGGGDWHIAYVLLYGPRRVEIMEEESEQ
T5 sequence (P54578 whole entry): as above
Chain of Isopeptidase T (IsoT) (P45974 whole entry): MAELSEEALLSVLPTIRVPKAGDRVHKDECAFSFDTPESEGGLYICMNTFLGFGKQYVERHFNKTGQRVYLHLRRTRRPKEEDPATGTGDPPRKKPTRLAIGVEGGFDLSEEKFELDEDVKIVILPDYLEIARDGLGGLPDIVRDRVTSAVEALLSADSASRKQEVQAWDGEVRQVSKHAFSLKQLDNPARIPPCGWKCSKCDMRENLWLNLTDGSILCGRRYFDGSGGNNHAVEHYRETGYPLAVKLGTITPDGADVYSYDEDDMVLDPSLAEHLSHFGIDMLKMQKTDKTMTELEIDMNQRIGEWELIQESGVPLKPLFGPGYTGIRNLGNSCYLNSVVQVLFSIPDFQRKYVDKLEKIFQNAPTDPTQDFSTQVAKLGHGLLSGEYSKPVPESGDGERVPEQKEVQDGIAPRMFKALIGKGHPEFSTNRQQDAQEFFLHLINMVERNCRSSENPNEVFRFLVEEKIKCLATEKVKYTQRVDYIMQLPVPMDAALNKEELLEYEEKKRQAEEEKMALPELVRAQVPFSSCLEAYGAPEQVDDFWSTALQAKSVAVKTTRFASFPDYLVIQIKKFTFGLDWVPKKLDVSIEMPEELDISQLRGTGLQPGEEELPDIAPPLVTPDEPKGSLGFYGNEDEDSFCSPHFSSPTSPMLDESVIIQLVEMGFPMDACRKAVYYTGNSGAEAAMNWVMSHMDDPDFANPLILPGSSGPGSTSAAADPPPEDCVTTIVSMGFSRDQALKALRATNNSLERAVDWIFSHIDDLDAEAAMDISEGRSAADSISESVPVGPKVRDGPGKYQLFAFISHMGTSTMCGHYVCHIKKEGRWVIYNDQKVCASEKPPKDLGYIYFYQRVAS

## Cc1cc(C(=O)CN2CCCC2)c(C)n1-c1ccc(F)cc1 [IU1, 1-[1-(4-fluorophenyl)-2,5-dimethlypyrrol-3-yl]-2-pyrrolidin-1-ylethanone]
[1]
  inhibition of other tested deubiquitinating enzymes: failed to significantly inhibit
[1]; lower concentrations of Ub-AMC
  specificity for USP14 versus Ub-AMC concentration: observed independently of Ub-AMC concentration
[2]
  concentration in serum-containing media of HEK293 cells: comparable concentration
MEFs and 293 cells; 120 μM
  inhibition of cellular proliferation at 120 μM: only a slight inhibition
MEFs and 293 cells; below 120 μM
  inhibition of cellular proliferation at lower concentrations: no apparent inhibition
HEK293 cells; IU1 50 uM
  effect on the IC50 for menadione: ~4 fold
HEK293 cells; compound 50 uM
  menadione toxicity: reduced this toxicity substantially
ataxin-3
  ataxin-3 level in cells: similarly depleted
[3]; 50 μM added to medium, MEFs
  time to reach steady-state concentration within cells: ≤ 1 h
[3]; 50 μM added to medium, MEFs, LC/MS
  steady-state concentration within cells: ~19 µM
[3]; 50 μM for one hour, then fresh media
  release of internalized compound from wild-type MEF cells: rapid release
[3]; 1 hr to 48 hr
  concentration in serum-containing media of Usp14−/− MEF cells: comparable concentration
Oxidized proteins
  accumulation of oxidized proteins: reduced
Isopeptidase T (IsoT)
  inhibition of Isopeptidase T: lack of inhibition
MEF cells [4]
  effect on cell survival upon oxidative stress: show this effect as well
[5]; IU1 100 μM added 30 min after 1 μM Ub-AMC, 2.5 nM proteasome, 30 nM USP14
  lag period of inhibition: without a detectable lag period
[5]; activity after up to three ultrafiltration spins
  reversibility of inhibition of Usp14: rapidly reversible
[5]; proteasome-bound Usp14, Ub-AMC
  inhibition of Usp14 deubiquitinase: potent inhibitor of proteasome-bound Usp14
TDP-43
  TDP-43 level in cells: similarly depleted
[6]
  hydrogen peroxide toxicity: reduced the toxicity
[7]
  effect on Usp14 complexing with the proteasome: did not antagonize Usp14 complexing with the proteasome
[8]; proteasome purified and assayed in presence of ADP
  concentration effective at inhibition of chain trimming: approximately 5 μM
[8]; with Usp14, presence of proteasome inhibitors
  chain trimming, Usp14/proteasome complexes: reduced the chain trimming to a level similar to that of the proteasome complexes that lacked Usp14
[8]; without Usp14, presence of proteasome inhibitors
  release of ubiquitin chains from cyclin B, proteasomes that lack Usp14: little or no effect
[9]
  inhibition of proteasome-bound Uch37: does not inhibit
MEF cells [10]
  induction of apoptosis: did not noticeably induce apoptosis
Murine Psmb5 promoter
  transcription of Psmb5 gene: does not induce the transcription
[11]; 34 μM IU1
  degradation of Ub-cyclin B by Usp14-containing proteasomes: stimulated the activity of Usp14-containing proteasomes
  substrate degradation or chain trimming by proteasomes that lack Usp14: no effect
[11]; catalytically inactive USP14
  cyclin B degradation in the presence of USP14-CA: does not affect cyclin B degradation
GFP-ODC
  degradation of GFP-ODC: little or no effect
[12]
  inhibition of Usp14 not complexed to the proteasome: failed to inhibit
proteasome
  integrity of proteasome: does not affect the integrity of proteasome
[13]
  concentration at which effects on cell viability became apparent: over 100 μM
UbB, α6, α7
  transcription of UbB: does not induce the transcription
  transcription of α6: does not induce the transcription
  transcription of α7: does not induce the transcription
Usp14
  covalent IU1-Usp14 adducts: failed to detect any covalent IU1-Usp14 adducts
[14]
  GFAP level in cells: similarly depleted
Tau; MEF cells, 25 to 100 μM, 6 hours
  Tau levels: reduced Tau levels at all concentrations tested
Tau; MEF cells, 25 to 100 μM, quantitative RT-PCR
  Tau mRNA levels: No effect
Tau; wild-type MEF, 75 μM IU1 and/or BafA1, 6 hrs
  dependence of Tau degradation stimulation on autophagy: not mediated by autophagy

## CO/C1=C\C(C)=C\[C@@H](C)[C@@H](O)[C@@H](C)C/C(C)=C/C=C/[C@H](OC)[C@@H]([C@@H](C)[C@@H](O)[C@H](C)[C@@]2(O)C[C@@H](O)[C@H](C)[C@@H](C(C)C)O2)OC1=O [bafilomycin A1]
mCherry-NBR1
  immunofluorescence signal of mCherry-NBR1: significantly increased
